Reference: patent US20120129811A1, “TRICYCLIC INHIBITORS OF PRO-MATRIX METALLOPROTEINASE ACTIVATION” (priority 2010, published 2012)
Counter-ions that a name gives are not always drawn.

How the values were obtained:
[1] = biological target: T1, proMMP9(20-445;ΔFnII) (SEQ ID NO:6) (Homo sapiens, UniProt P14780, DEL216-390); assay: ThermoFluor binding assay with proMMP9(20-445;ΔFnII)
T1 construct: start methionine (N); made in house; host or cells: E. coli BL21(DE3) RIL
T1 sequence (P14780 with tags, fused parts or gaps DEL216-390): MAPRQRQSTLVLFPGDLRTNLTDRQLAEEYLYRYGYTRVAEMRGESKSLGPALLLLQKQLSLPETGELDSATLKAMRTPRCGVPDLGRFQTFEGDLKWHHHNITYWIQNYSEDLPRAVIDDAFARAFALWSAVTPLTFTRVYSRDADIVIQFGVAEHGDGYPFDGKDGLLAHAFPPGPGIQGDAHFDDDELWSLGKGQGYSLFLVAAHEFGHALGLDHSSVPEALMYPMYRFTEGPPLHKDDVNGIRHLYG
Description: (§1) The ThermoFluor® (TF) assay is a 384-well plate-based binding assay that measures thermal stability of proteins (Biomol Screen 2001, 6, 429-40; Biochemistry 2005, 44, 5258-66). The experiments were carried out using instruments available from Johnson & Johnson Pharmaceutical Research & Development, LLC. TF dye used in all experiments was […] (1,8-ANS) (Invitrogen: A-47).
(§2) Compounds were arranged in a pre-dispensed plate (Greiner Bio-one: 781280), wherein compounds were serially diluted in 100% DMSO across 11 columns within a series. Columns 12 and 24 were used as DMSO reference and contained no compound. For multiple compound concentration-response experiments, the compound aliquots (50 nL) were robotically predispensed directly into black 384-well polypropylene PCR microplates (Abgene: TF-0384/k) using a Cartesian Hummingbird liquid handler (DigiLab, Holliston, Mass.). Following compound dispense, protein and dye solutions were added to achieve the final assay volume of 3 μL. The assay solutions were overlayed with 1 μL of silicone oil (Fluka, type DC 200: 85411) to prevent evaporation.
(§3) Assay plates were robotically loaded onto a thermostatically controlled PCR-type thermal block and then heated from 40 to 90° C. at a ramp-rate of 1° C./min for all experiments. Fluorescence was measured by continuous illumination with UV light (Hamamatsu LC6) supplied via fiber optics and filtered through a band-pass filter (380-400 nm; >60D cutoff). Fluorescence emission of the entire 384-well plate was detected by measuring light intensity using a CCD camera (Sensys, Roper Scientific) filtered to detect 500±25 nm, resulting in simultaneous and independent readings of all 384 wells. A single image with 20-sec exposure time was collected at each temperature, and the sum of the pixel intensity in a given area of the assay plate was recorded vs temperature and fit to standard equations to yield the Tm (J Biomol Screen 2001, 6, 429-40).
(§4) Thermodynamic parameters necessary for fitting compound binding for each proMMP were estimated by differential scanning calorimetry (DSC) and from ThermoFluor® data. The heat capacity of unfolding for each protein was estimated from the molecular weight and from ThermoFluor® dosing data.
ThermoFluor® with proMMP9(20-445; ΔFnII (SEQ ID NO:6)
The protein sample preparations included a desalting buffer exchange step via a PD-10 gravity column (GE Healthcare). The desalting buffer exchange was performed prior to diluting the protein to the final assay concentration of 2.8 μM proMMP9(20-445;ΔFnII) (SEQ ID NO:6). The concentration of proMMP9(20-445;ΔFnII) (SEQ ID NO:6) was determined spectrophotometrically based on a calculated extinction coefficient of ε280=39880 M^−1 cm^−1, a calculated molecular weight of 28.2 kDa, and calculated pI of 5.5. ThermoFluor® reference conditions were define as follows: 80 μg/mL (2.8 μM) proMMP9(20-445;ΔFnII) (SEQ ID NO:6), 50 μM 1,8-ANS, pH 7.0 Buffer (50 mM HEPES pH 7.0, 100 mM NaCl, 0.001% Tween-20, 2.5 mM MgCl2, 300 μM CaCl2). The thermodynamic parameters for proMMP9(20-445;ΔFnII) (SEQ ID NO:6) are as follows: Tm (° C.)=72 (+/−0.1), ΔUH(Tm) (cal mol^−1)=160000(+/−5000), ΔUSTm (cal mol^−1 K^−1)=434, ΔUCp (cal mol^−1 K^−1)=2400.

[2] = biological target: T2, proMMP9(67-444;ΔFnII) (SEQ ID NO:5) (Homo sapiens, UniProt P14780, DEL216-390); assay: ThermoFluor binding assay with proMMP9(67-444;ΔFnII)
T2 construct: start methionine (N); made in house; host or cells: E. coli BL21(DE3) RIL
T2 sequence (P14780 with tags, fused parts or gaps DEL216-390): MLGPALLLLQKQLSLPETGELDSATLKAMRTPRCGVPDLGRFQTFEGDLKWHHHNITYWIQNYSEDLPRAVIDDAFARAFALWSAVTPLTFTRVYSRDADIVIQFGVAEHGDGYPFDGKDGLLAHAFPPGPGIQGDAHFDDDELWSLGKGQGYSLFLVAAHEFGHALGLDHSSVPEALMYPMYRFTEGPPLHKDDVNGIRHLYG
Description: as §1, §2, §3, §4
ThermoFluor® with proMMP9(67-444;ΔFnM (SEQ ID NO:5)
The protein sample preparations had to include a desalting buffer exchange step via a PD-10 gravity column (GE Healthcare). The desalting buffer exchange was performed prior to diluting the protein to the final assay concentration of 3.5 μM proMMP9(67-444;ΔFnII) (SEQ ID NO:5). The concentration of proMMP9(67-444;ΔFnII) (SEQ ID NO:5) was determined spectrophotometrically based on a calculated extinction coefficient of ε280=33900 M^−1 cm^−1, a calculated molecular weight of 22.6 kDa, and calculated pI of 5.20. ThermoFluor® reference conditions were defined as follows: 80 μg/mL (3.5 μM) proMMP9(67-444;ΔFnII) (SEQ ID NO:5), 50 μM 1,8-ANS, pH 7.0 Buffer (50 mM HEPES pH 7.0, 100 mM NaCl, 0.001% Tween-20, 2.5 mM MgCl2, 300 μM CaCl2). The thermodynamic parameters for proMMP9(67-444;ΔFnII) (SEQ ID NO:5) are as follows: Tm (° C.)=63 (+/−0.1), ΔUH(Tm)(cal mol^−1)=105000(+/−5000), ΔUS(Tm) (cal mol^−1 K^−1)=450, ΔUCp (cal mol^−1 K^−1)=2000.

[3] = biological target: T3, full-length proMMP9(1-707) activation by catalytic MMP3 (Homo sapiens, UniProt P14780, R574P); assay: proMMP9/MMP3 P126 Activation Assay; type: biochemical
T3 construct: made in house; host or cells: proMMP9: HEK293 (secreted); MMP3: E. coli
Description: proMMP9/MMP3 P126 Activation Assay
The reaction volume was 50 μL. […] Reactivity of residual MMP3 towards P-126 substrate was minimal under these conditions.

T3 sequence (P14780 20-707 R574P): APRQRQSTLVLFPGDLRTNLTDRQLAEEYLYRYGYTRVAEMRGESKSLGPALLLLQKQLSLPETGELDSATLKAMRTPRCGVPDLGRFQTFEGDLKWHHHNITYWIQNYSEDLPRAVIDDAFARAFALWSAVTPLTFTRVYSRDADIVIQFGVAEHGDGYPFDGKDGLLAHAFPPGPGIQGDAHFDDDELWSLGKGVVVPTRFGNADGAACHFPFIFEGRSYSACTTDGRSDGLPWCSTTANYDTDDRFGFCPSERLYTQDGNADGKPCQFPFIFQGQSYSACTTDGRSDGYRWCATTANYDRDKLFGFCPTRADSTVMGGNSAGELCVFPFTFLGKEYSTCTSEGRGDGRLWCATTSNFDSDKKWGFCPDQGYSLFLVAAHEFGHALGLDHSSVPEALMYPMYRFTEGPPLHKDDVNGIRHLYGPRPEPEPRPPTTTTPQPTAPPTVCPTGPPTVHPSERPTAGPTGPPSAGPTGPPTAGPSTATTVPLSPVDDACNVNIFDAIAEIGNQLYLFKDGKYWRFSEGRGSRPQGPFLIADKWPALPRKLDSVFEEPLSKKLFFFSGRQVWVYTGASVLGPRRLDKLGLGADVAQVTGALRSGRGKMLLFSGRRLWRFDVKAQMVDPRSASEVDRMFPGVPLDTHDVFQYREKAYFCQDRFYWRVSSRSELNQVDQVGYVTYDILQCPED

| SMILES | Kd [1] | Kd [2] | IC50 [3] |
| --- | --- | --- | --- |
| COc1ccc(Nc2nc3c(ccc4c3ncn4C)s2)c(OC)c1 [Example 78, (2,4-Dimethoxy-phenyl)-(6-methyl-6H-imidazo[4′,5′:3,4]-benzo[2,1-d]thiazol-2-yl)-amine.HCl] | 10 µM | 3.4 µM | 4 µM |
| COc1ccc(S(=O)(=O)N2CCOCC2)cc1Nc1nc2c(ccc3c2ncn3C)s1 [Example 81, [2-Methoxy-5-(morpholine-4-sulfonyl)-phenyl]-(6-methyl-6H-imidazo[4′,5′:3,4]benzo[2,1-d]thiazol-2-yl)-amine.HCl] | 5.2 µM | 1.2 µM | 0.75 µM |
| Cn1cnc2c3nc(Nc4ccc(C#N)cc4OC(F)(F)F)sc3ccc21 [Example 86, 4-(6-Methyl-6H-imidazo[4′,5′:3,4]benzo[2,1-d]thiazol-2-ylamino)-3-trifluoromethoxy-benzonitrile.HCl] | > 95 µM | 0.68 µM | 0.65 µM |
| COc1ccc(NC(N)=O)cc1Nc1nc2c(ccc3c2ncn3C)s1 [Example 87, [4-Methoxy-3-(6-methyl-6H-imidazo[4′,5′:3,4]benzo[2,1-d]thiazol-2-ylamino)-phenyl]-urea.HCl] | 6 µM | 1.6 µM | 0.65 µM |
| COc1ccc(F)cc1Nc1nc2c(ccc3c2cnn3C)s1 [Example 93, (5-Fluoro-2-methoxy-phenyl)-(6-methyl-6H-3-thia-1,6,7-triaza-as-indacen-2-yl)-amine.HCl] | 19 µM | 8.1 µM | 0.18 µM |
| COc1ccccc1Nc1nc2c(ccc3c2cnn3C)s1 [Example 94, (2-Methoxy-phenyl)-(6-methyl-6H-3-thia-1,6,7-triaza-as-indacen-2-yl)-amine.TFA] | 15 µM | 9.2 µM | 0.51 µM |
| COc1ccc(S(C)(=O)=O)cc1Nc1nc2c(ccc3cnccc32)s1 [Example 97, (5-Methanesulfonyl-2-methoxy-phenyl)-thiazolo[4,5-f]isoquinolin-2-yl-amine.TFA] | 4.4 µM | 1 µM | 0.18 µM |
| NS(=O)(=O)c1ccc(OC(F)(F)F)c(Nc2nc3c(ccc4cnccc43)s2)c1 [Example 98, 3-(Thiazolo[4,5-f]isoquinolin-2-ylamino)-4-trifluoromethoxy-benzenesulfonamide.TFA] | 7.6 µM | 3 µM | > 20 µM |
| COc1ccc(F)cc1Nc1nc2c(ccc3cnccc32)s1 [Example 99, (5-Fluoro-2-methoxy-phenyl)-thiazolo[4,5-f]isoquinolin-2-yl-amine.TFA] | 20 µM | 3.2 µM | 0.87 µM |
| CC(C)Oc1ccc(S(N)(=O)=O)cc1Nc1nc2c(ccc3cnccc32)s1 [Example 105, 4-Isopropoxy-3-(thiazolo[4,5-f]isoquinolin-2-ylamino)-benzenesulfonamide.TFA] | 65 µM | 0.8 µM | 0.85 µM |

Molecules with a lower Kd [1], results first:

| Kd [1] | Kd [2] | IC50 [3] | SMILES |
| --- | --- | --- | --- |
| 3.2 µM | 2.6 µM | 1.1 µM | Cn1cnc2c3nc(Nc4ccccc4[N+](=O)[O-])sc3ccc21 [Example 77, (6-Methyl-6H-imidazo[4′,5′:3,4]-benzo[2,1-d]thiazol-2-yl)-(2-nitro-phenyl)-amine.HCl] |
| 3.2 µM | 0.93 µM | 0.39 µM | COc1ccc(N)cc1Nc1nc2c(ccc3c2ncn3C)s1 [Example 79, 4-Methoxy-N^3-(6-methyl-6H-imidazo[4′,5′:3,4]-benzo[2,1-d]thiazol-2-yl)-benzene-1,3-diamine.HCl] |
| 2.3 µM | 0.96 µM | 0.74 µM | COc1ccc(S(=O)(=O)N2CCCCC2)cc1Nc1nc2c(ccc3c2ncn3C)s1 [Example 80, [2-Methoxy-5-(piperidine-1-sulfonyl)-phenyl]-(6-methyl-6H-imidazo[4′,5′:3,4]-benzo[2,1-d]thiazol-2-yl)-amine.HCl] |
| 1.5 µM | 1.1 µM | 0.33 µM | CNS(=O)(=O)c1ccc(OC)c(Nc2nc3c(ccc4c3ncn4C)s2)c1 [Example 82, 4-Methoxy-N-methyl-3-(6-methyl-6H-imidazo[4′,5′:3,4]-benzo[2,1-d]thiazol-2-ylamino)-benzenesulfonamide.HCl] |
| 0.58 µM | 0.15 µM | 0.15 µM | COc1ccc(C#N)cc1Nc1nc2c(ccc3c2ccn3C)s1 [Example 85, 4-Methoxy-3-(6-methyl-6H-thiazolo[4,5-e]indol-2-ylamino)-benzonitrile.HCl] |
| 0.73 µM | 0.44 µM | 0.73 µM | COc1ccc(C(N)=O)cc1Nc1nc2c(ccc3cnccc32)s1 [Example 96, 4-Methoxy-3-(thiazolo[4,5-f]isoquinolin-2-ylamino)-benzamide.TFA] |
| 0.79 µM | 0.43 µM | 0.76 µM | Cn1ncc2c3nc(Nc4cc(S(N)(=O)=O)ccc4OC(F)(F)F)sc3ccc21 [Example 101, 3-(6-Methyl-6H-3-thia-1,6,7-triaza-as-indacen-2-ylamino)-4-trifluoromethoxy-benzenesulfonamide.TFA] |
| 0.25 µM | 0.68 µM | 0.39 µM | CC(C)Oc1ccc(S(N)(=O)=O)cc1Nc1nc2c(ccc3c2cnn3C)s1 [Example 102, 4-Isopropoxy-3-(6-methyl-6H-3-thia-1,6,7-triaza-as-indacen-2-ylamino)-benzenesulfonamide.TFA] |
| 0.75 µM | 0.37 µM | 0.38 µM | COc1ccc(S(N)(=O)=O)cc1Nc1nc2c(ccc3c2cnn3C)s1 [Example 103, 4-Methoxy-3-(6-methyl-6H-3-thia-1,6,7-triaza-as-indacen-2-ylamino)-benzenesulfonamide.TFA] |
